Reference: ChEMBL document CHEMBL1135233, “Cytotoxic, antifouling bromotyramines: a synthetic study on simple marine natural products and Their analogues” (Bioorg Med Chem Lett, 2002)
In brackets after ≈: the same amount, converted by molar mass.

What was measured:
NCI-H460 [1] = test: Tested for growth inhibition against human NCI-H460 lung cancer cell line at 100 uM; type: functional
SF-268 = test: Tested for growth inhibition against human SF-268 CNS cancer cell line at 100 uM; type: functional
Amphibalanus amphitrite = test: Antifouling activity of compound against Balanus amphitrite expressed by inhibition of settlement of barnacle cyprids; type: functional
MCF7 = test: Tested for growth inhibition against human MCF-7 breast cancer cell line at 100 uM; type: functional
CCRF-CEM = test: Tested for the cytotoxicity against CCRF-CEM leukemia cell line […]; type: functional; conditions: Homo sapiens
[2] = Tested for the lethality dose against barnacle cyprids of Balanus amphitrite; conditions: Amphibalanus amphitrite; read-out: LD50 (the source's name)
NCI-H460 [3] = test: Tested for the cytotoxicity against NCI-H460 lung cancer cell line […]; type: functional; conditions: Homo sapiens
NCI-H226 = test: Tested for the cytotoxicity against NCI-H226 lung cancer cell line […]; type: functional; conditions: Homo sapiens
SW-620 = test: Tested for the cytotoxicity against SW-620 colon cancer cell line […]; type: functional; conditions: Homo sapiens
Hs-578T = test: Tested for the cytotoxicity against Hs 578.T breast cancer cell line; type: functional; conditions: Homo sapiens
P388 = test: Tested for the inhibition against P388 murine leukemia cell; type: functional, cell-based; conditions: Mus musculus

Row | SMILES | Growth (NCI-H460 [1]) | Growth (SF-268) | EC50 (Amphibalanus amphitrite) | Growth (MCF7) | GI50 (CCRF-CEM) | LC50 [2] | GI50 (NCI-H460 [3]) | GI50 (NCI-H226) | GI50 (SW-620) | GI50 (Hs-578T) | IC50 (P388)
1 | NCCCOc1c(Cl)cc(CCN)cc1Cl | 93% | 85% | 33 µg/mL (≈ 125 µM) | -53% |  |  |  |  |  |  | 
2 | NCCCCOc1c(Br)cc(CCN)cc1Br | 25% | 50% | 6 µg/mL (≈ 16.4 µM) | 19% |  |  |  |  |  |  | 
3 | CC(=O)NCCc1cc(Br)c(O)c(Br)c1 | 105% | 84% |  | 88% |  |  |  |  |  |  | 
4 | CCCCCCCC(=O)NCCc1cc(Br)c(OC)c(Br)c1 | 1% | -68% | 0.2 µg/mL (≈ 0.46 µM) | -74% | 400 nM | 1 µg/mL (≈ 2.3 µM) |  |  |  |  | 
5 | CCCCCCCCNCCc1cc(Br)c(OC)c(Br)c1 | -83% | -84% | 0.008 µg/mL (≈ 0.019 µM) | -82% |  | 0.03 µg/mL (≈ 0.0712 µM) | 50 nM |  |  |  | 
6 | NCCOc1c(Br)cc(CCN)cc1Br | 70% | 70% | 0.8 µg/mL (≈ 2.37 µM) | 39% |  |  |  |  |  |  | 
7 | COc1c(Br)cc(CCN)cc1Br | 53% | 16% | 0.07 µg/mL (≈ 0.227 µM) | 8% | < 10 nM | 0.2 µg/mL (≈ 0.647 µM) |  | < 10 nM | < 10 nM | 200 nM | 
8 | NCCCOc1ccc(CCN)cc1 | 120% | 120% | > 50 µg/mL | 104% |  |  |  |  |  |  | 
9 | NCCCOc1c(Br)cc(CCN)cc1Br [MOLOKA'IAMINE] | 68% | 62% | 5 µg/mL (≈ 14.2 µM) | 38% |  |  |  |  |  |  | 2.1 µg/mL (≈ 5.96 µM)
10 | N#CC(=O)NCCCOc1c(Br)cc(CCN)cc1Br [CERATINAMINE] | 82% | 39% |  | 7% |  |  |  |  |  |  | 
